Values joined by “and” are separate entries in the source; they are usually repeats but may differ in a detail not shown here. Equal entries are not always repeated.
Experiments:
MDA-MB-231 [1] = details: incubation time: 72 h
Experimental: (§1)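 MDA-MB-231 breast cancer cells were transfected with siBRCA1 or non-targeting siControl, then seeded 24 h later at 4000 cells/well in 384-well plates holding 198 drugs at 5 concentrations. Viability was read by CellTiter-Blue after 72 h at 37 °C. Dose-response curves were fitted in Dotmatics to give IC50 and a drug sensitivity score (DSS: area under the curve relative to the area between the 10% threshold and 100% inhibition, normalised by the log of the top response). The dose range is not stated. IC50 values of 8333.3 or 4166.7 nM mark no response (top dose), and 0.8333 nM is the lower limit.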

MDA-MB-231 [2] = assay: drug sensitivity score (DSS); higher = more sensitive; extreme values may be limits of the assay; details: incubation time: 72 h
Experimental: as §1

[3] = siRNA: siControl (non-targeting)

Row | IC50 of cell viability (MDA-MB-231 [1]; siRNA: siBRCA1) | IC50 of cell viability (MDA-MB-231 [1]; [3]) | SMILES | drug sensitivity score (MDA-MB-231 [2]; siRNA: siBRCA1) | drug sensitivity score (MDA-MB-231 [2]; [3])
1 | > 4170 nM | 1090 nM | CC[C@H](Nc1ncnc2[nH]cnc12)c1nc2cccc(F)c2c(=O)n1-c1ccccc1 [CAL-101] | 0 | 2.02
2 | > 4170 nM | 865 nM | CC(=O)Nc1ccc(C(=O)Nc2ccccc2N)cc1 [CI-994] | 0 | 2.63
3 | 433 nM | 321 nM | C#Cc1cccc(Nc2ncnc3cc(OC)c(OCCCCCCC(=O)NO)cc23)c1 [CUDC-101] | 14.7 | 16.4
4 | 2510 nM | 1690 nM | C=CC(=O)Nc1cc2c(Nc3ccc(F)c(Cl)c3)ncnc2cc1OCCCN1CCOCC1 [Canertinib] | 5.78 | 7.67
5 | > 4170 nM | > 4170 nM | CCCCCOC(=O)Nc1nc(=O)n([C@@H]2O[C@H](C)[C@@H](O)[C@H]2O)cc1F [Capecitabine] | 0 | 0
6 | > 4170 nM | > 4170 nM | O=C(O)C1(C(=O)O)CCC1.[NH2-].[NH2-].[Pt+2] [Carboplatin] | 0 | 0
7 | 4.01 nM | 13.6 nM | CC(C)C[C@H](NC(=O)[C@H](CCc1ccccc1)NC(=O)CN1CCOCC1)C(=O)N[C@@H](Cc1ccccc1)C(=O)N[C@@H](CC(C)C)C(=O)[C@@]1(C)CO1 [Carfilzomib] | 39.3 | 33.7
8 | > 4170 nM | > 4170 nM | O=NN(CCCl)C(=O)NCCCl [Carmustine] | 0 | 0
9 | > 4170 nM | > 4170 nM | COc1cc2c(Oc3ccc4[nH]c(C)cc4c3F)ncnc2cc1OCCCN1CCCC1 [Cediranib] | 0.0221 | 0
10 | 1350 nM | > 4170 nM | Cc1ccc(-c2cc(C(F)(F)F)nn2-c2ccc(S(N)(=O)=O)cc2)cc1 [Celecoxib] | 3.29 | 0
11 | 2880 nM | 91.8 nM | Nc1nc(Cl)nc2c1ncn2[C@H]1C[C@H](O)[C@@H](CO)O1 [Cladribine] | 5.2 | 9.09
12 | 82.1 nM | 28.1 nM | Nc1nc(Cl)nc2c1ncn2[C@@H]1O[C@H](CO)[C@@H](O)[C@@H]1F [Clofarabine] | 8.22 | 12.5
13 | > 4170 nM | 4070 nM | C[C@@H](Oc1cc(-c2cnn(C3CCNCC3)c2)cnc1N)c1c(Cl)ccc(F)c1Cl [Crizotinib] | 0.595 | 4.02
14 | 591 nM | 294 nM | Nc1ccn([C@@H]2O[C@H](CO)[C@@H](O)[C@@H]2O)c(=O)n1 [Cytarabine] | 5.84 | 6.18
15 | 1330 nM | 96.4 nM | CN(C)/N=N/c1[nH]cnc1C(N)=O [Dacarbazine] | 2.68 | 7.63
16 | 4.19 nM | 2.18 nM | Cc1c2oc3c(C)ccc(C(=O)N[C@@H]4C(=O)N[C@H](C(C)C)C(=O)N5CCC[C@H]5C(=O)N(C)CC(=O)N(C)[C@@H](C(C)C)C(=O)O[C@@H]4C)c3nc-2c(C(=O)N[C@@H]2C(=O)N[C@H](C(C)C)C(=O)N3CCC[C@H]3C(=O)N(C)CC(=O)N(C)[C@@H](C(C)C)C(=O)O[C@@H]2C)c(N)c1=O [Dactinomycin] | 36.8 | 38.3

Row | IC50 of cell viability (MDA-MB-231 [1]; siRNA: siBRCA1) | IC50 of cell viability (MDA-MB-231 [1]; [3]) | SMILES | drug sensitivity score (MDA-MB-231 [2]; siRNA: siBRCA1) | drug sensitivity score (MDA-MB-231 [2]; [3])
17 | 1910 nM | 1160 nM | CO[C@@H](C(=O)N1Cc2[nH]nc(NC(=O)c3ccc(N4CCN(C)CC4)cc3)c2C1)c1ccccc1 [Danusertib] | 6.5 | 10.1
18 | 11 nM | 11.3 nM | Cc1nc(Nc2ncc(C(=O)Nc3c(C)cccc3Cl)s2)cc(N2CCN(CCO)CC2)n1 [Dasatinib] | 27 | 27
19 | 159 nM | 52.2 nM | COc1cccc2c1C(=O)c1c(O)c3c(c(O)c1C2=O)C[C@@](O)(C(C)=O)C[C@@H]3O[C@H]1C[C@H](N)[C@H](O)[C@H](C)O1 [Daunorubicin] | 19.8 | 24.9
20 | > 4170 nM | > 4170 nM | Nc1ncn([C@H]2C[C@H](O)[C@@H](CO)O2)c(=O)n1 [Decitabine] | – | 0
21 | > 4170 nM | > 4170 nM | C[C@@H]1C[C@H]2[C@@H]3CCC4=CC(=O)C=C[C@]4(C)[C@@]3(F)[C@@H](O)C[C@]2(C)[C@@]1(O)C(=O)CO [Dexamethasone] | 0 | 0
22 | 2.71 nM | 1.57 nM and 1.83 nM | CC(=O)O[C@@]12CO[C@@H]1C[C@H](O)[C@@]1(C)C(=O)[C@H](O)C3=C(C)[C@@H](OC(=O)[C@H](O)[C@@H](NC(=O)OC(C)(C)C)c4ccccc4)C[C@@](O)([C@@H](OC(=O)c4ccccc4)[C@H]21)C3(C)C [Docetaxel] | 32.7 and 31.2 | 33.3 and 33.8
23 | > 4170 nM | > 4170 nM | Cc1ccc(-n2nc(C(C)(C)C)cc2NC(=O)Nc2ccc(OCCN3CCOCC3)c3ccccc23)cc1 [Doramapimod] | 0 | 0
24 | > 4170 nM | > 4170 nM | CN1CCN(c2ccc3nc(-c4c(N)c5c(F)cccc5[nH]c4=O)[nH]c3c2)CC1 [Dovitinib] | 0 | 0
25 | 205 nM | 148 nM | COc1cccc2c1C(=O)c1c(O)c3c(c(O)c1C2=O)C[C@@](O)(C(=O)CO)C[C@@H]3O[C@H]1C[C@H](N)[C@H](O)[C@H](C)O1 [Doxorubicin] | 17.9 | 19.6
26 | > 4170 nM | > 4170 nM | Nc1ccccc1NC(=O)c1ccc(CNC(=O)OCc2cccnc2)cc1 [Entinostat] | 0 | 2.12
27 | > 4170 nM | > 4170 nM | C#Cc1cccc(Nc2ncnc3cc(OCCOC)c(OCCOC)cc23)c1 [Erlotinib] | 0 | 0
28 | 91.9 nM | > 4170 nM | COc1cc([C@@H]2c3cc4c(cc3[C@@H](O[C@@H]3O[C@@H]5CO[C@@H](C)O[C@H]5[C@H](O)[C@H]3O)[C@H]3COC(=O)[C@H]23)OCO4)cc(OC)c1O [Etoposide] | 10 | 2.9
29 | 1.12 nM and < 0.833 nM | < 0.833 nM | CO[C@H]1C[C@@H]2CC[C@@H](C)[C@@](O)(O2)C(=O)C(=O)N2CCCC[C@H]2C(=O)O[C@H]([C@H](C)C[C@@H]2CC[C@@H](OCCO)[C@H](OC)C2)CC(=O)[C@H](C)/C=C(\C)[C@@H](O)[C@@H](OC)C(=O)[C@H](C)C[C@H](C)/C=C/C=C/C=C/1C [Everolimus] | 19.8 and 16.9 | 21.1 and 21.8
30 | > 4170 nM | > 4170 nM | O=S(=O)(c1cccc2cnccc12)N1CCCNCC1 [Fasudil] | 0 | 0
31 | > 4170 nM | > 4170 nM | CC(C)(C)NC(=O)[C@H]1CC[C@H]2[C@@H]3CC[C@H]4NC(=O)C=C[C@]4(C)[C@H]3CC[C@]12C [Finasteride] | 0 | 0

Row | SMILES | IC50 of cell viability (MDA-MB-231 [1]; siRNA: siBRCA1) | IC50 of cell viability (MDA-MB-231 [1]; [3]) | drug sensitivity score (MDA-MB-231 [2]; siRNA: siBRCA1) | drug sensitivity score (MDA-MB-231 [2]; [3])
32 | CC[C@@]1(O)C(=O)OCc2c1cc1n(c2=O)Cc2cc3ccccc3nc2-1 [Camptothecin] | 45.6 nM | 328 nM | 16.9 | 10.9
33 | O=C(O)CCCc1ccc(N(CCCl)CCCl)cc1 [Chlorambucil] | > 4170 nM | > 4170 nM | 0.465 | 0
34 | O=P1(N(CCCl)CCCl)NCCCO1 (configuration not stated) [Cyclophosphamide] | > 4170 nM | > 4170 nM | 0.0343 | 0
35 | Cn1cc(C2=C(c3cn(C4CCN(Cc5ccccn5)CC4)c4ccccc34)C(=O)NC2=O)c2ccccc21 [Enzastaurin] | > 4170 nM | > 4170 nM | 0 | 0
36 | C/C(=C\c1csc(C)n1)[C@@H]1C[C@@H]2O[C@]2(C)CCC[C@H](C)[C@H](O)[C@@H](C)C(=O)C(C)(C)[C@@H](O)CC(=O)O1 [Epothilone B (Patupilone)] | 29.4 nM | 29.1 nM | 23.4 | 23.6
37 | C=C1C[C@@H]2[C@H](CC[C@]3(C)C(=O)CC[C@@H]23)[C@@]2(C)C=CC(=O)C=C12 [Exemestane] | > 4170 nM | > 4170 nM | 0 | 0

From the supplement of paper PMC4649846
